# Assay results taken from patent US20220160652A1, “USE OF VITAMIN K IN COMBINATION WITH ANTICOAGULANTS” (KAYDENCE PHARMA AS, priority 2019, published 2022).
# What was measured:
# Sprague-Dawley rats = test: Thrombin Time (TT) in treated Sprague-Dawley rats; type: in vivo, rat; settings: added to dabigatran and to rivaroxaban
# Protocol: To perform the study, 45 wild-type male Sprague-Dawley and 45 transgenic male Ren-2 rats [TGR(mREN-2)27] at the age of 10-11 weeks at the beginning of the treatment period were purchased from animal facility IKEM-CEM Institute of Clinical and Experimental Medicine (Prague, Czech Republic). All animals in the experiment were housed in individually ventilated cages (2-3 rats per cage) and kept in the animal rooms of JCET at a relative humidity of 55±10%, a temperature of 22±2 ° C., and a light cycle of 7 AM to 7 PM. The rats had free access to food and water. After delivery, animals were randomly divided into 10 experimental groups (5 or 10 rats per group), as indicated below in Table 1.
# Four days before the start of the treatment, the first part of animals' body weight and food intake was measured in selected representative three cages (rats n=9) to calculate the appropriate amount of tested compounds required for addition to the diet to obtain the dosing indicated in Table 1. It was estimated that food intake was approximately 30 g of chow per rat per day. […] The body mass of the rats was measured at the beginning and at the end of treatment.
# Prothrombin Time (PT), activated Partial Thromboplastin Time (aPTT), Thrombin Time (TT) and fibrinogen levels (Clauss method) were determined according to the manufacturer's instructions using Coag-Chrom 3003 apparatus (Bio-ksel, Grudziadz, Poland). […]
# VSMCs = test: ATP increase, 24 h incubation (luminescence); type: cell-based; settings: 10 μM, p=0.014 for MK-7
# Protocol: This study was performed to determine if vitamin K2 (MK-7) affects ATP generation. ATP is generated via glycolysis in the cytoplasm and via both the Krebs-cycle and oxidative phosphorylation in the mitochondria. ATP generation via glycolysis delivers only 2 ATP, whereas ATP generation in the mitochondria generates some 32 ATP.
# To perform this study, VSCMs (5000 cells/well) were plated in 96-well plates and left to adhere overnight. Next, cells were incubated for 24 hours with either vehicle, vitamin K2 (MK-7) (10 μM), or UQ10 (10 μM). Hoechst was added to correct for cell number (1 μg/mL). Next, ATP was measured using mammalian lysis buffer for 5 minutes after which 50 μL ATP substrate solution was added to the wells and incubated for 10 minutes in a dark environment. Finally, the medium was transferred to a white plate to measure luminescence
smiles,measurement,setting,value
CC(C)=CCC/C(C)=C/CC/C(C)=C/CC/C(C)=C/CC/C(C)=C/CC/C(C)=C/CC/C(C)=C/CC1=C(C)C(=O)c2ccccc2C1=O [vitamin K2 (MK-7)],increase of thrombin time on addition of vitamin K2 (MK-7),Sprague-Dawley rats,5-7%
same,ATP production in VSMCs compared to the vehicle,VSMCs,increased ATP production in VSMCs significantly
